The values below come from patent US6288060A, “Amino substituted pyrimidines and triazines” (Neurocrine Biosciences, Inc., priority 1998, dated 2001).

The target in one assay is T1, human CRF receptors (Homo sapiens, UniProt P34998).
T1 construct: expressed in transfected cells
T1 sequence (P34998 24-415): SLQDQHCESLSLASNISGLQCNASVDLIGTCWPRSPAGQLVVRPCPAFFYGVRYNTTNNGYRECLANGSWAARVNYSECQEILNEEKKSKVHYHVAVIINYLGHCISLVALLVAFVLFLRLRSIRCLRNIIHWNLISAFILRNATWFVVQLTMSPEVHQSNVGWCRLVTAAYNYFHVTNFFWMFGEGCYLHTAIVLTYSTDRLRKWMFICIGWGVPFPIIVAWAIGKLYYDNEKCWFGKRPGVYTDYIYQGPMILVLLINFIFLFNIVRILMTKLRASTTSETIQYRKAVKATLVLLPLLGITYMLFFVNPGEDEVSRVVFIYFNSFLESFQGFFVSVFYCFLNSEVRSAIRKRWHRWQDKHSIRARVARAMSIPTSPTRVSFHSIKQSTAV
As to the kind of experiment: radioligand binding assay, displacement of [125I]tyrosine-ovine CRF from CRF receptor (stably transfected cells). Conditions: [125I]tyrosine-ovine CRF ~200 pM; cells stably transfected with human CRF receptors; 2 hours at 22° C. An excerpt: The effectiveness of a compound as a CRF receptor antagonist may be determined by various assay methods. […] CRF receptor affinity may be determined by binding studies that measure the ability of a compound to inhibit the binding of a radiolabeled CRF (e.g. [^125 I]tyrosine CFR) to receptor (e.g., receptors prepared from rat cerebral cortex membranes). The radioligand binding assay described by DeSouza et al. (supra, 1987) provides an assay for determining a compound's affinity for the CRF receptor.
where L=radioligand and KD =affinity of radioligand for receptor (Cheng and Prusoff, Biochem. Pharmacol. 22:3099, 1973).
By utilizing various radiolabeled CRF ligands, the assay may be used to evaluate the binding activity of the compounds of the present invention with any CRF receptor subtype. Briefly, the binding assay involves the displacement of a radiolabeled CRF ligand from the CRF receptor.
More specifically, the binding assay was performed in 1.5 ml Eppendorf tubes using approximately 1×10^6 cells per tube stably transfected with human CRF receptors. Each tube received about 0.1 ml of assay buffer (e.g., Dulbecco's phosphate buffered saline, 10 mM magnesium chloride, 20 μM bacitracin) with or without unlabeled sauvagine, urotensin I or CRF (final concentration, […]) to determine nonspecific binding, 0.1 ml of [^125 I] tyrosine--ovine CRF (final concentration ~200 pM or approximately the KD as determined by Scatchard analysis) and 0.1 ml of a membrane suspension of cells containing the CRF receptor. The mixture was incubated for 2 hours at 22° C. followed by the separation of the bound and free radioligand by centrifugation. Following two washes of the pellets, the tubes were cut just above the pellet and monitored in a gamma counter for radioactivity at approximately 80% efficiency. All radioligand binding data was analyzed using a non-linear least-square curve-fitting program. Binding activity corresponds to the concentration (nM) of the compound necessary to displace 50% of the radiolabeled ligand from the receptor.
`CCCN(CC1CC1)c1nc(C)nc(C(=O)c2c(OC)cc(OC)cc2OC)c1C` [Compound 2] showed an inhibitory constant (Ki) of no more than 250 nM.

`CCCN(CC1CC1)c1nc(C)nc(C(=O)c2c(C)cc(C)cc2C)c1C` [Compound 5] came in with a Ki of no more than 250 nM.

`CCCN(CC1CC1)c1nc(C)nc(C(=O)c2c(CC)cc(CC)cc2CC)c1C` [Compound 8] gave a Ki of no more than 250 nM.

Consider `CCCN(CCC)c1nc(C)nc(C(=O)c2c(C)cc(C)cc2C)c1C` [Compound 13], for which the Ki is no more than 250 nM.

`C=CCN(CC=C)c1nc(C)nc(C(=O)c2c(C)cc(C)cc2C)c1C` [Compound 14]: the inhibition constant Ki is no more than 250 nM.

Compound `CCCN(CC1CC1)c1nc(C)nc(Cc2c(OC)cc(OC)cc2OC)c1C` [Compound 20, 2,6-dimethyl-4-(N-propyl-N-cyclopropylmethylamino)-6-(2',4',6'-trimethyloxyphenylmeth-1'-yl)-pyrimidine] displayed a Ki of no more than 250 nM.

The same assay, now with this note: result in words, same radioligand binding assay.
For the compound `CCCN(CC1CC1)c1nc(C)nc(C(=O)c2c(CC)cc(CC)cc2CC)c1C` [Compound 8], the “score in CRF receptor binding test (ranking among compounds)” value is given as “best score”.
